From publication PMC12381739, “Druglike Molecular Degraders of the Oncogenic RNA-Binding Protein HuR” (JACS Au, 2025)

Target: T1, HuR RRM1/2 (Homo sapiens, UniProt Q15717)
T1 construct: 20 nM of the 5′-FAM RNA probe and 500 nM of HuR RRM1/2
Assay: Fluorescence polarization (FP) displacement assay, 5′ FAM-labeled RNA probe from HuR
Details: displacement of 5′-FAM RNA probe UAUUUAUUUA (20 nM) from 500 nM HuR RRM1/2; read-out: Binding affinity towards HuR in FP assay (Kd)
Method: Following the synthesis, our initial aim was to ensure that the new derivatives retained their affinity for HuR’s RNA-binding pocket. Thus, a binding evaluation assay was conducted. As previously reported, the RNA-binding pocket of HuR specifically recognizes the UTR sequences of mRNAs, with […] identified as a common binding motif. To evaluate the binding of each degrader, we conducted a fluorescence-based assay utilizing a 5-carboxyfluorescein (5′ FAM)-labeled reporter. This fluorescence polarization (FP) assay is based on the displacement of the 5′ FAM-labeled mRNA from HuR’s RNA-binding pocket, which provides insight into both the binding affinity of the degrader and its capacity to disrupt the HuR-mRNA interaction, thereby serving as a means of validating target engagement. When the 5′ FAM-RNA probe is bound to HuR, it forms a binary complex, resulting in slower rotational movement and a consequently high FP signal. However, when either molecule displaces the 5′ FAM-labeled RNA, the probe is released into the solution, where it undergoes rapid rotation, leading to a significant reduction in the FP signal (Figure S3). This decrease in FP serves as a quantitative measure of the degrader’s ability to compete with mRNA for HuR binding. […] As mentioned above, we synthesized a series of HuR ligand derivatives featuring indole and benzothiophene cores, along with ester and carboxylic acid functional groups.
As previously reported, the sequence of the fluorescently labeled (5′-FAM) RNA probe is […]. The assays were performed in PBS buffer (20 mM sodium phosphate, 150 mM NaCl, 1 mM dithiothreitol, 0.05% PLURONIC-127, 15% DMSO) at 293 K. Fluorescence was measured using the Synergy H1 Hybrid Multi-Mode Microplate Reader (Biotek, Agilent) with excitation and emission wavelengths set to 485 and 528 nm, respectively. Each well of a 384-well plate contained 20 nM of the 5′-FAM RNA probe and 500 nM of HuR RRM1/2. Compounds were tested at eight concentrations (0.1 nM–100 μM), with compound 10 serving as a positive control and PBS as the negative control. The protein-mRNA mixture was incubated for 1.5 h to allow for binding interactions. After this incubation, the compounds were added, and the mixture was incubated for an additional hour. The FP emission of the resulting HuR-compound complex was then recorded. The percent inhibition of binding was calculated by comparing the FP values of experimental conditions to the PBS control. The FP value corresponding to the HuR-RNA complex in the presence of DMSO was used as the 100% complexation reference, while the FP value of the labeled RNA alone was set as 0% complexation. The dissociation constant (K d) for the compound-HuR binding interaction was determined by fitting the dose–response curve to specific binding models using Prism 10.2.2. All experiments were performed in triplicate.

T1 sequence (Q15717 18-186 limits assumed): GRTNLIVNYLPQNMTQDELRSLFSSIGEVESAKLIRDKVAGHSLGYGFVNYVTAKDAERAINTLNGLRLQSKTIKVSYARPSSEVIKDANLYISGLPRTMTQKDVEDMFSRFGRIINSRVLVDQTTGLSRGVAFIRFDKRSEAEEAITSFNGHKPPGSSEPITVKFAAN

- Kd: 30 nM
Structure (SMILES): O=C1CCC(N2C(=O)c3cccc(NCc4cn(-c5ccc6sc(C(=O)O)cc6c5)nn4)c3C2=O)C(=O)N1 (stereo not shown) [PRO-HuR3]
